Experimental data reported in patent US7528138B2, “Pyrazolo[1,5-a]pyrimidines useful as inhibitors of protein kinases” (Vertex Pharmaceuticals Incorporated, priority 2004, dated 2009).

Experiments:
Assay type in all cases: biochemical
[1] = biological target: c-Met (Homo sapiens, UniProt P08581); experiment: c-Met Inhibition Assay, coupled enzyme system; settings: enzyme inhibition data (Ki), Table 11
Procedure, shortened: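 Pyruvate kinase/lactate dehydrogenase-coupled NADH assay in HEPES pH 7.5 with 80 nM c-Met, 200 μM ATP and 10 μM polyGluTyr at 30° C. Compound (0.006–12.5 μM final, 12-point) preincubated 10 min before ATP start; rates over 10 min gave Ki.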

[2] = biological target: T1, Itk (Homo sapiens, UniProt Q08881); experiment: ITK Inhibition Assay (Radiometric), radioactive-phosphate incorporation; settings: enzyme inhibition data (Ki), Table 11; radiometric or UV assay not stated
T1 sequence (Q08881 1-620): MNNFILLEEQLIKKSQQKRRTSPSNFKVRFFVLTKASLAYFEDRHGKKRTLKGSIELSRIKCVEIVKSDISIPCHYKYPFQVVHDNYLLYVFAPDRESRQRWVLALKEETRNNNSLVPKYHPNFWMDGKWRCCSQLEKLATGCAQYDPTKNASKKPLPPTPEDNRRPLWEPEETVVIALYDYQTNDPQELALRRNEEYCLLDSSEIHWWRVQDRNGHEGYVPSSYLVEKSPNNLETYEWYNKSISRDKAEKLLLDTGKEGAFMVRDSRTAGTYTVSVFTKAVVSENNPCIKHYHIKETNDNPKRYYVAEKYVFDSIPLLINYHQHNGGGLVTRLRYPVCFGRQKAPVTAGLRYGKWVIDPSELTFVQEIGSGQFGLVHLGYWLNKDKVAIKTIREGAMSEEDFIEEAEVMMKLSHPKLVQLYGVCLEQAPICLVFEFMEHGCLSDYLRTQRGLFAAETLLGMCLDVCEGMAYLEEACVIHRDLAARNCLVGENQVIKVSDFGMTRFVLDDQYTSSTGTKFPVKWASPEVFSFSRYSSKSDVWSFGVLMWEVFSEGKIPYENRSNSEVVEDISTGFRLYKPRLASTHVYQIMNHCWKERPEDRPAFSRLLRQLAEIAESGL
Procedure, shortened: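 Radiometric 33P incorporation into SAM68 peptide (D332-443) with filter capture and scintillation counting; 10 min pre-incubation then 10 min reaction at 25° C. IC50 format: 30 nM Itk, 15 μM ATP, 2 μM peptide, HEPES pH 7.5. Ki(app) format: 50 nM Itk, 7.5 μM ATP, 3 μM peptide, MOPS pH 7.0.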

[3] = biological target: T2, JAK3 (Homo sapiens, UniProt P52333); experiment: JAK3 Inhibition Assay, 33P incorporation; settings: enzyme inhibition data (Ki), Table 11
T2 sequence (P52333 1-1124): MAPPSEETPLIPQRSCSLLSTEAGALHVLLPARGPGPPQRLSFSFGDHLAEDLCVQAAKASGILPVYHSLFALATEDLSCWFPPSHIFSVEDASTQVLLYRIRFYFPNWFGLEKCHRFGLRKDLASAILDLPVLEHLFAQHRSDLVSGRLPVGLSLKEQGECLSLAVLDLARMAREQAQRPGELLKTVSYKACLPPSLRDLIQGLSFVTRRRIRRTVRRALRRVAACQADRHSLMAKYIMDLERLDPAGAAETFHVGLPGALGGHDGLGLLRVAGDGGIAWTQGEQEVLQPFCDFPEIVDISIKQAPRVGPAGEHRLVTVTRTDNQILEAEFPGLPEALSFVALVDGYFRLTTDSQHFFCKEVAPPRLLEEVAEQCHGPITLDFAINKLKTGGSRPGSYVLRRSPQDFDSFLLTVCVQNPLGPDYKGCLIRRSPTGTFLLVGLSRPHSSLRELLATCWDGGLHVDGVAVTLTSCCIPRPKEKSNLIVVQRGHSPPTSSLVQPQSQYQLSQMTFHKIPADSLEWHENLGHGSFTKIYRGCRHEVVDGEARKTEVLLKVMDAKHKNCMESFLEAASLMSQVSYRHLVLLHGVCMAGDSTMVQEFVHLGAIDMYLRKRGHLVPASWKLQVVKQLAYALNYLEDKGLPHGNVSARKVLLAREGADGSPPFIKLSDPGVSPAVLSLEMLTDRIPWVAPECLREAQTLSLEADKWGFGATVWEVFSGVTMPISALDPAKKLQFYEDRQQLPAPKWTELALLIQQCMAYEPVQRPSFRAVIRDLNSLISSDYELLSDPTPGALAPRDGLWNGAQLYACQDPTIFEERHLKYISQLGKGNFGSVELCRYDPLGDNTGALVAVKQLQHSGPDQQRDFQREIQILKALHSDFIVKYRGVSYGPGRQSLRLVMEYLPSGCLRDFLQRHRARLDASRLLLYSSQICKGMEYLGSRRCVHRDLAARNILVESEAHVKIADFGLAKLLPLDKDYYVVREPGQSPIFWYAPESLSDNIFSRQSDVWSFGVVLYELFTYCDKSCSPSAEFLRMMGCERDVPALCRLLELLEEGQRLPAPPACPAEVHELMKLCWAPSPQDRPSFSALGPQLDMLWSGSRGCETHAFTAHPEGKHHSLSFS
Procedure, shortened: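 Recombinant JAK3 at 1 nM in HEPES pH 7.4 buffer with 10 mM MgCl2, 1 mM DTT and 0.01% BSA. Substrates were 5 μM ATP (200 uCi/μmole) and 1 μM poly(Glu)4Tyr, reacted 20 min at 25 °C. Stopped with TCA, and 33P incorporation counted on glass fiber filters.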

Sequence of c-Met (P08581 25-1390): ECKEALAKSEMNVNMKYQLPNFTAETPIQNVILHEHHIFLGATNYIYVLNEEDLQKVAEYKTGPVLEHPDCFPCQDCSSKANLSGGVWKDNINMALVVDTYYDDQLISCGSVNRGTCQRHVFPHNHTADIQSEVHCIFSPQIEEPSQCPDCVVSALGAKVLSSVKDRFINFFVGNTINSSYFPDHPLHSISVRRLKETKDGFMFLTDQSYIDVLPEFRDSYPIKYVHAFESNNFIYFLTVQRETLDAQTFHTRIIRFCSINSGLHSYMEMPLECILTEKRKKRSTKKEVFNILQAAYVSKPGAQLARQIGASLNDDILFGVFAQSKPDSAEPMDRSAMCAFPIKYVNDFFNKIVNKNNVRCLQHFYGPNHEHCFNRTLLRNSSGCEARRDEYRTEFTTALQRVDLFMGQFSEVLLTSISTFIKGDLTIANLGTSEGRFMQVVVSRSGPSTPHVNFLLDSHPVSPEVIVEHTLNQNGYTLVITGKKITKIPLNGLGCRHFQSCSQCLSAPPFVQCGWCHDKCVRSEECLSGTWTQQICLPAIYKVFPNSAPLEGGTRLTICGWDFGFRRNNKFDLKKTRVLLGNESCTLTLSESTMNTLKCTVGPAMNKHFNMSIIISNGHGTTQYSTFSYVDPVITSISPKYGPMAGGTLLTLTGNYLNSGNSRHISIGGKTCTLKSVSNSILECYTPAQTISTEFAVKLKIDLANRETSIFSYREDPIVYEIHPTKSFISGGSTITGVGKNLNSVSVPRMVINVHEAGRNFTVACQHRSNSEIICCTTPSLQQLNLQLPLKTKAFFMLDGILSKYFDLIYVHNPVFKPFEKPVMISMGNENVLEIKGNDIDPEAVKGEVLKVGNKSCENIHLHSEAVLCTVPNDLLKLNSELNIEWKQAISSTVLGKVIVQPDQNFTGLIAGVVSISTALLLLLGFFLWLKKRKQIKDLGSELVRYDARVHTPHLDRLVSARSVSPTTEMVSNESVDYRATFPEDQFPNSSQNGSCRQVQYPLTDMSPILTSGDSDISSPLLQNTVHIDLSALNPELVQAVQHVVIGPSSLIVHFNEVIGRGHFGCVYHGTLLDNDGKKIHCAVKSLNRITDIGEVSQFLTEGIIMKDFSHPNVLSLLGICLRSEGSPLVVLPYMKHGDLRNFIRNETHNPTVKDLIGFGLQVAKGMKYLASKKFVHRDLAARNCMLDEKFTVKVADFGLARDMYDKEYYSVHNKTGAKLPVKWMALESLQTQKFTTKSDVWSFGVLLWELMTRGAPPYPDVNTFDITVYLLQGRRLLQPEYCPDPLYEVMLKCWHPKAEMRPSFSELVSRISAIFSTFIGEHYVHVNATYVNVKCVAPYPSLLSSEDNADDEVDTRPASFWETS

Row | Structure (SMILES) | Ki [1] [nM] | Ki [2] [nM] | Ki [3] [nM]
1 | Nc1nn2cc(CCCO)cnc2c1-c1ccccn1 [Compound V-310] | 500 to 5000 | 500 to 5000 | > 5000
2 | Nc1nn2cc(CCCN3CCCC3)cnc2c1-c1ccccn1 [Compound V-311] | < 500 | 500 to 5000 | > 5000
3 | Nc1nn2cc(CCCN3CCCCC3)cnc2c1-c1ccccn1 [Compound V-312] | 500 to 5000 | 500 to 5000 | > 5000
4 | Nc1nn2cc(CCCN3CCOCC3)cnc2c1-c1ccccn1 [Compound V-313] | 500 to 5000 | 500 to 5000 | > 5000
5 | Nc1nn2cc(CCCN3CCNCC3)cnc2c1-c1ccccn1 [Compound V-314] | 500 to 5000 | 500 to 5000 | > 5000
6 | CCN1CCN(CCCc2cnc3c(-c4ccccn4)c(N)nn3c2)CC1 [Compound V-315] | 500 to 5000 | 500 to 5000 | > 5000
7 | CN(C)CCCc1cnc2c(-c3ccccn3)c(N)nn2c1 [Compound V-316] | 500 to 5000 | 500 to 5000 | > 5000
8 | CC(C)CN(C)CCCc1cnc2c(-c3ccccn3)c(N)nn2c1 [Compound V-317] | 500 to 5000 | 500 to 5000 | > 5000
9 | CCN(C)CCCc1cnc2c(-c3ccccn3)c(N)nn2c1 [Compound V-318] | 500 to 5000 | 500 to 5000 | > 5000
10 | CCN(CC)CCCc1cnc2c(-c3ccccn3)c(N)nn2c1 [Compound V-319] | < 500 | 500 to 5000 | > 5000
11 | CC(C)N(CCCc1cnc2c(-c3ccccn3)c(N)nn2c1)C(C)C [Compound V-320] | 500 to 5000 | 500 to 5000 | > 5000
12 | CCN(CC)CCN(C)CCCc1cnc2c(-c3ccccn3)c(N)nn2c1 [Compound V-321] | 500 to 5000 | 500 to 5000 | > 5000
13 | Nc1nn2cc(CCCNC3CC3)cnc2c1-c1ccccn1 [Compound V-322] | 500 to 5000 | 500 to 5000 | > 5000
14 | Nc1nn2cc(CCCNC3CCCCC3)cnc2c1-c1ccccn1 [Compound V-323] | 500 to 5000 | 500 to 5000 | > 5000
15 | C[C@@H](CO)NCCCc1cnc2c(-c3ccccn3)c(N)nn2c1 [Compound V-326] | 500 to 5000 | 500 to 5000 | > 5000
16 | CC(C)NCCCc1cnc2c(-c3ccccn3)c(N)nn2c1 [Compound V-327] | 500 to 5000 | 500 to 5000 | > 5000
17 | Nc1nn2cc(CCCN3CCSCC3)cnc2c1-c1ccccn1 [Compound V-328] | 500 to 5000 | 500 to 5000 | > 5000
18 | CC(C)N1CCN(CCCc2cnc3c(-c4ccccn4)c(N)nn3c2)CC1 [Compound V-331] | 500 to 5000 | 500 to 5000 | > 5000

Results, then the compound that gave them:

Row | Ki [1] [nM] | Ki [2] [nM] | Ki [3] [nM] | Structure (SMILES)
19 | 500 to 5000 | 500 to 5000 | 500 to 5000 | Cc1cnc2c(-c3cc(NC(C)CO)ncn3)c(N)nn2c1 (stereo not drawn) [Compound V-283]
20 | < 500 | 500 to 5000 | 500 to 5000 | Cc1cnc2c(-c3cc(NC4CCN(C)CC4)ncn3)c(N)nn2c1 [Compound V-284]
21 | < 500 | 500 to 5000 | 500 to 5000 | CC[C@H](CO)Nc1cc(-c2c(N)nn3cc(C)cnc23)ncn1 [Compound V-287]
22 | < 500 | < 500 | 500 to 5000 | CCC(CO)Nc1cc(-c2c(N)nn3cc(C)cnc23)ncn1 (stereo not drawn) [Compound V-288]
23 | < 500 | 500 to 5000 | 500 to 5000 | COC[C@H](C)Nc1cc(-c2c(N)nn3cc(C)cnc23)ncn1 [Compound V-292]
24 | < 500 | < 500 | 500 to 5000 | Cc1cnc2c(-c3cc(N[C@@H](C)C(C)C)ncn3)c(N)nn2c1 [Compound V-296]
25 | < 500 | 500 to 5000 | 500 to 5000 | Cc1cnc2c(-c3cc(N[C@H](C)C4CCCCC4)ncn3)c(N)nn2c1 [Compound V-297]
26 | < 500 | < 500 | 500 to 5000 | Cc1cnc2c(-c3cc(N[C@H](CO)CC(C)C)ncn3)c(N)nn2c1 [Compound V-298]
27 | < 500 | < 500 | < 500 | Cc1cnc2c(-c3cc(N4CCCC4C)ncn3)c(N)nn2c1 (stereo not drawn) [Compound V-299]
28 | < 500 | < 500 | 500 to 5000 | COC[C@H]1CCCN1c1cc(-c2c(N)nn3cc(C)cnc23)ncn1 [Compound V-302]
29 | 500 to 5000 | 500 to 5000 | 500 to 5000 | Cc1cnc2c(-c3cc(N4CCC(c5ccccc5)C4)ncn3)c(N)nn2c1 (stereo not drawn) [Compound V-303]
30 | 500 to 5000 | 500 to 5000 | > 5000 | Cc1cnc2c(-c3cc(N4CCC(CCc5ccccc5)C4)ncn3)c(N)nn2c1 (stereo not drawn) [Compound V-304]
31 | 500 to 5000 | 500 to 5000 | > 5000 | Cc1cnc2c(-c3cc(N4CCC[C@H]4CN4CCCC4)ncn3)c(N)nn2c1 [Compound V-305]
32 | < 500 | 500 to 5000 | 500 to 5000 | Cc1cnc2c(-c3cc(N4CCC[C@H]4CO)ncn3)c(N)nn2c1 [Compound V-306]
33 | < 500 | 500 to 5000 | 500 to 5000 | Cc1cnc2c(-c3cc(N4CCCC4c4ccc(F)cc4)ncn3)c(N)nn2c1 (stereo not drawn) [Compound V-307]
34 | < 500 | < 500 | < 500 | Cc1cnc2c(-c3cc(N4CCC(S(C)(=O)=O)C4)ncn3)c(N)nn2c1 (stereo not drawn) [Compound V-308]
35 | < 500 | 500 to 5000 | < 500 | Cc1cnc2c(-c3cc(N4CCCC(C(N)=O)C4)ncn3)c(N)nn2c1 (stereo not drawn) [Compound V-309]
36 | < 500 | 500 to 5000 | > 5000 | Nc1nn2cc(CCCNC3CCC3)cnc2c1-c1ccccn1 [Compound V-324]
37 | 500 to 5000 | 500 to 5000 | > 5000 | Nc1nn2cc(CCCN3CC[C@H](O)C3)cnc2c1-c1ccccn1 [Compound V-325]
38 | < 500 | 500 to 5000 | > 5000 | Nc1nn2cc(CCCNCC3CCCO3)cnc2c1-c1ccccn1 (stereo not drawn) [Compound V-329]
39 | 500 to 5000 | 500 to 5000 | > 5000 | CCOC(=O)C1CCCN(CCCc2cnc3c(-c4ccccn4)c(N)nn3c2)C1 (stereo not drawn) [Compound V-330]
40 | < 500 | < 500 | 500 to 5000 | Cc1cnc2c(-c3cc(NC4CCCC4)ncn3)c(N)nn2c1 [Compound V-332]
41 | < 500 | < 500 | 500 to 5000 | Cc1cnc2c(-c3cc(NC4CC5CCC4C5)ncn3)c(N)nn2c1 (stereo not drawn) [Compound V-333]
42 | < 500 | 500 to 5000 | 500 to 5000 | Cc1cnc2c(-c3cc(N[C@H]4CCC[C@@H]4OCc4ccccc4)ncn3)c(N)nn2c1 [Compound V-334]
